Assay results taken from patent publication US10160771B2, “Hepatitis C virus inhibitors and uses thereof in preparation of drugs” (priority 2014, dated 2018).

Assays:
[1] = system: HCV genotype 1a (HCV-1a) replicon cells; experiment: HCV genotype 1a replicon luciferase assay (EC50); type: cell-based, hepatitis C virus genotype 1a (H77 clone); conditions: 3 days, luciferase (Bright-Glo)
Experimental: (§1) The EC50 and CC50 values of anti-HCV compounds were determined by HCV genotype 1a (HCV-1a) and 1B (HCV-1b) stable transfer replication (replicon) cells. The source of genotype 1a replicon is H77 clones containing K1691R, K2040R and S2204I adaptive mutations. The source of genotype 1b replicon is Con1 clones containing E1202G, T1280I and K1846T adaptive mutations.
(§2) HCV 1a (HCV-1a) and 1b (HCV-1b) gene subtype replicon system contains the related HCV gene subtype non structural protein gene, G418 resistance gene NEO and luciferase gene, which results in that HCV related protein and luciferase can be stably expressed in cells. By detecting the level of expression of luciferase gene, the level of HCV replication can be determined. Therefore, the system is used as a model for screening the activity of anti-HCV compound in vitro.
(§3) HCV Replicon Cell Lines: HCV-1a and HCV-1b Cells
(§4) The compound powder was dissolved in 100% DMSO. Then the compound was diluted 5 times with 6 points, and added into the cell plate with Echo liquid handler. Ensure the final concentration of DMSO was 0.5%. Each compound was tested in double holes. Maximum initial concentration was 100, 10 or 1 nM, 5 times dilution, 6 points.
(§5) b) Cell Culture (HCV-1a or HCV-1b Replicon Cell):
(§6) 1) absorbing the culture supernatant of the cell culture and washing the cells with 10 mL PBS.
(§7) 2) adding preheated pancreatin to the washed cell culture flasks, rotating culture bottle to make the bottom of the culture bottle uniformly covered by pancreatin, then placed into 37° C., 5% CO2 incubator to digest.
(§8) 3) suspending cells in each T150 culture flask with 10-15 mL culture medium, absorbing 0.1 mL liquid and diluting 2 times by trypan blue solution as counted.
(§9) 4) diluting cells to 8×10^4/mL with the culture medium, adding the diluted cells into the compound-containing 96-well plate (Greiner, Cat.#655090) (100 μL/well, 8000 cells/well) with automatic liquid separator (Thermo Scientific). Then place into a 37° C., 5% CO2 incubator for 3 days. Cell control well: no compound, only containing 0.5% DMSO.
(§10) 6) then adding luciferase luminescence substrate Bright-Glo, after incubation for 5 minutes, detecting the luciferase activity by chemical luminescence detection system Envison (wavelength>700 nm); analyzing the anti-HCV inhibitory activity of the compounds according to luciferase data, which was used to calculate EC50 values.
(§11) The EC50 or CC50 values were obtained by nonlinear fitting analysis on inhibition percentage (inh %) data with GraphPad Prism software.

[2] = system: HCV genotype 1b (HCV-1b) replicon cells; experiment: HCV genotype 1b replicon luciferase assay (EC50); type: cell-based, hepatitis C virus genotype 1b (Con1 clone); conditions: 3 days, luciferase (Bright-Glo)
Experimental: as §1, §2, §3, §4, §5, §6, §7, §8, §9, §10, §11

SMILES | EC50 ([1]; Hepatitis C virus, 72 h) | EC50 ([2]; Hepatitis C virus, 72 h) | EC50 [1] | EC50 [2]
COC(=O)N[C@H](C(=O)N1CCC[C@H]1c1ncc(-c2ccc(-c3ccc(-c4cnc([C@@H]5[C@H]6CC[C@H](C6)[C@H]5C(=O)NNC(C)=O)[nH]4)cc3)cc2)[nH]1)C(C)C [AA_289_ENDOA2] | 10 to 100 nM | 0.101 to 1 nM | – | –
COC(=O)CNC(=O)[C@H](NC(=O)[C@@H]1[C@@H]2CC[C@@H](C2)[C@H]1c1ncc(-c2ccc(-c3ccc(-c4cnc([C@@H]5CCCN5C(=O)[C@@H](NC(=O)OC)C(C)C)[nH]4)cc3)cc2)[nH]1)C(C)C [AA_290_ENDOA2] | 10 to 100 nM | 0.101 to 1 nM | – | –
COC(=O)N[C@H](C(=O)N1CCC[C@H]1c1ncc(-c2ccc(-c3ccc(-c4cnc([C@@H]5[C@H]6CC[C@H](C6)[C@H]5C(=O)NCc5ncc(C)[nH]5)[nH]4)cc3)cc2)[nH]1)C(C)C [AA_291_ENDOA2] | 1 to 10 nM | 0.001 to 0.1 nM | – | –
COC(=O)N[C@H](C(=O)N1CCC[C@H]1c1ncc(-c2ccc(-c3ccc(-c4cnc([C@@H]5[C@H]6CC[C@H](C6)[C@H]5C(=O)NC(C)c5cncnc5)[nH]4)cc3)cc2)[nH]1)C(C)C (some centres unmarked) [AA_292_ENDOA2_M] | 1 to 10 nM | 0.101 to 1 nM | – | –
COC(=O)N[C@H](C(=O)N1CCC[C@H]1c1ncc(-c2ccc(-c3ccc(-c4cnc([C@@H]5[C@H]6CC[C@H](C6)[C@H]5C(=O)N[C@@H](C(=O)c5ccccc5)C(C)C)[nH]4)cc3)cc2)[nH]1)C(C)C [AA_293_ENDOA2] | 1 to 10 nM | 0.001 to 0.1 nM | – | –
COC(=O)N[C@H](C(=O)N1CCC[C@H]1c1ncc(-c2ccc(-c3ccc(-c4cnc([C@@H]5[C@H]6CC[C@H](C6)[C@H]5C(=O)NN5CCCC5=O)[nH]4)cc3)cc2)[nH]1)C(C)C [AA_294_ENDOA2] | 10 to 100 nM | 0.001 to 0.1 nM | – | –
COC(=O)N[C@H](C(=O)N1CCC[C@H]1c1ncc(-c2ccc(-c3ccc(-c4cnc([C@@H]5[C@H]6CC[C@H](C6)[C@H]5C(=O)NN5CC[C@@H](C)C5=O)[nH]4)cc3)cc2)[nH]1)C(C)C [AA_295_ENDOA2_A] | 10 to 100 nM | 0.101 to 1 nM | – | –
COC(=O)N[C@H](C(=O)N1CCC[C@H]1c1ncc(-c2ccc(-c3ccc(-c4cnc([C@@H]5[C@H]6CC[C@H](C6)[C@H]5C(=O)NN5CC[C@H](C)C5=O)[nH]4)cc3)cc2)[nH]1)C(C)C [AA_295_ENDOA2_B] | 10 to 100 nM | 0.101 to 1 nM | – | –
COC(=O)N[C@H](C(=O)N1CCC[C@H]1c1ncc(-c2ccc(-c3ccc(-c4cnc([C@@H]5[C@H]6CC[C@H](C6)[C@H]5C(=O)N[C@H](C(=O)NCc5cccnc5)C(C)C)[nH]4)cc3)cc2)[nH]1)C(C)C [AA_296_ENDOA2] | 1 to 10 nM | 0.101 to 1 nM | – | –
CCOC(=O)[C@@H](NC(=O)[C@@H]1[C@@H]2CC[C@@H](C2)[C@H]1c1ncc(-c2ccc(-c3ccc(-c4cnc([C@@H]5CCCN5C(=O)[C@@H](NC(=O)OC)C(C)C)[nH]4)cc3)cc2)[nH]1)C(C)C [AA_297_ENDOA2] | 10 to 100 nM | 0.101 to 1 nM | – | –
COC(=O)N[C@H](C(=O)N1CCC[C@H]1c1cc(Cl)c(-c2ccc(-c3ccc(-c4cnc([C@@H]5CCCN5C(=O)[C@@H](NC(=O)OC)[C@@H](C)OC)[nH]4)cc3)cc2)[nH]1)[C@@H](C)OC [AG_095] | 0.101 to 1 nM | 0.001 to 0.1 nM | – | –
COC(=O)N[C@H](C(=O)N1CCC[C@H]1c1ncc(-c2ccc(-c3ccc(-c4ccc(C5CCCC5C(=O)NCc5cccnc5)[nH]4)cc3)cc2)[nH]1)[C@@H](C)OC (some centres unmarked) [AG_096] | 10 to 100 nM | 0.001 to 0.1 nM | – | –
COC(=O)N[C@H](C(=O)N1CCC[C@H]1c1ccc(-c2ccc(-c3ccc(-c4cnc([C@@H]5CCCN5C(=O)C5(NC(=O)OC)CC5)[nH]4)cc3)cc2)[nH]1)C(C)C [AG_097] | – | – | 10 to 100 nM | 0.001 to 0.1 nM
COC(=O)N[C@@H](COC(C)(C)C)C(=O)N1CCC[C@H]1c1ncc(-c2ccc(-c3ccc(-c4ccc([C@@H]5CCCN5C(=O)[C@@H](NC(=O)OC)C(C)C)[nH]4)cc3)cc2)[nH]1 [AG_098] | 1 to 10 nM | 0.001 to 0.1 nM | – | –
COC(=O)N[C@H](C(=O)N1CCC[C@H]1c1ccc(-c2ccc(-c3ccc(-c4cnc([C@@H]5CCCN5C(=O)[C@@H](NC(=O)OC)[C@@H](C)O)[nH]4)cc3)cc2)[nH]1)C(C)C [AG_099] | 1 to 10 nM | 0.101 to 1 nM | – | –
COC(=O)N[C@H](C(=O)N1CCC[C@H]1c1ncc(-c2ccc(-c3ccc(-c4[nH]c([C@@H]5CCCN5C(=O)[C@@H](NC(=O)OC)C(C)C)c5c4OCC5)cc3)cc2)[nH]1)C(C)C [AG_114_A] | – | – | 10 to 100 nM | 0.101 to 1 nM
